Columns and labels:
[1] = PAMPA-BBB parallel artificial membrane permeability assay; format: in vitro ADME, porcine; conditions: pig, pH 7.4, PBS:EtOH (70:30) as solvent, mean ± SD of 2 independent experiments, 2 h 30 min at 25 °C, read-out: Pe
Procedure: Filter PDVF membrane units (diameter 30 mm, pore size 0.45 μm) from Symta were used to filter the samples. A 96-well plate UV reader (Thermoscientific, Multiskan spectrum) was used for the UV measurements. […] These solutions were filtered. […] Then the donor plate was carefully put on the acceptor plate to form a “sandwich”, which was left undisturbed for 2 h and 30 min at 25 °C. […] During this time the compounds diffused from the donor plate through the brain lipid membrane into the acceptor plate. After incubation, the donor plate was removed. UV plate reader determined the concentration of compounds and commercial drugs in the acceptor and the donor wells. […] 10 quality control compounds (previously mentioned) of known BBB permeability were included in each experiment to validate the analysis set.

SH-SY5Y cells = test: Cell viability of SH-SY5Y cells by MTT (toxicity check); conditions: undifferentiated SH-SY5Y, 70 µM of OA, 24 h

| Papp at […] [1] [×10⁻⁶ cm/s] | Compound | decrease of cell viability (SH-SY5Y cells) |
| --- | --- | --- |
| 12 ± 0.9 | CN(C)CCCN1c2ccccc2Sc2ccccc21 [Promazine] | – |
| – | C=C1[C@@H](O)[C@@H]2O[C@]3(CC[C@H](/C=C/[C@@H](C)[C@@H]4CC(C)=C[C@@]5(O[C@H](C[C@@](C)(O)C(=O)O)CC[C@H]5O)O4)O3)CC[C@H]2O[C@@H]1[C@@H](O)C[C@H](C)[C@H]1O[C@@]2(CCCCO2)CC[C@H]1C [OA, okadaic acid] | about 43% |
| 0.6 ± 0.8 | CN1C(C(=O)Nc2ccccn2)=C(O)c2ccccc2S1(=O)=O [Piroxicam] | – |

— article PMC10784249 (Natural Products and Bioprospecting, 2024)
